Measured values reported in the supplement of paper PMC10627819.

Tests used:
S. aureus DSM 20231 [1] = assay: fitness (endpoint OD595 vs no drug) (fraction); higher = more growth
Outline: (§1)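 Growth medium was TSB, LB Lennox or CY, and plates were kept at 37 °C. Inoculation was at OD595 0.01 in 384-well plates, at 30 µl per well or 55 µl for S. pneumoniae. OD595 was monitored every 30 min for 14 h and background-subtracted using the first reading. Fitness is the optical density on entering stationary phase divided by the robust mean of no-drug controls, with values capped at 1.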

S. aureus Newman [2] = assay: as above
Outline: as §1

S. pneumoniae D39V [3] = assay: as above
Outline: as §1

B. subtilis 168 = assay: Bliss interaction score (quartile over a dose matrix) (fitness difference); higher = more antagonism (negative = synergy)
Outline: (§2)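 Fitness was OD595 at entry into stationary phase divided by the plate's robust no-drug mean and capped at 1; single-drug fitness was inferred from combination data. The Bliss score is observed minus expected (product) fitness, summarised by quartiles over technical, biological and donor/recipient replicates.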

S. aureus DSM 20231 [4] = assay: as above
Outline: as §2

S. aureus Newman [5] = assay: as above
Outline: as §2

S. pneumoniae D39V [6] = assay: as above
Outline: as §2

[7] = first compound 0.0625 µg/mL, partner 4 µg/mL
[8] = first compound 0.0625 µg/mL, partner 8 µg/mL
[9] = first compound 0.0625 µg/mL, partner 16 µg/mL
[10] = first compound 0.0625 µg/mL, partner 32 µg/mL, one replicate
[11] = first compound 0.0625 µg/mL, partner 64 µg/mL, one replicate
[12] = first compound 0.125 µg/mL, partner 4 µg/mL
[13] = first compound 0.125 µg/mL, partner 32 µg/mL, one replicate
[14] = first compound 0.125 µg/mL, partner 64 µg/mL, one replicate
[15] = first compound 0.25 µg/mL, partner 8 µg/mL
[16] = first compound 0.25 µg/mL, partner 32 µg/mL, one replicate
[17] = first compound 0.25 µg/mL, partner 64 µg/mL, one replicate
[18] = first compound 0.0625 µg/mL, partner 0.1875 µg/mL
[19] = first compound 0.0625 µg/mL, partner 0.375 µg/mL
[20] = first compound 0.125 µg/mL, partner 0.1875 µg/mL
[21] = first compound 0.125 µg/mL, partner 0.375 µg/mL
[22] = first compound 0.25 µg/mL, partner 0.1875 µg/mL
[23] = first compound 0.25 µg/mL, partner 0.375 µg/mL
[24] = first compound 0.25 µg/mL, partner 0.75 µg/mL
[25] = first compound 0.0625 µg/mL, partner 0.75 µg/mL
[26] = first compound 0.125 µg/mL, partner 0.75 µg/mL
[27] = first compound 0.125 µg/mL, partner 3 µg/mL
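Wherever Bliss interaction score (quartile over a dose matrix) is given: first quartile when negative (synergy) and third quartile when positive (antagonism).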

Compound: CC1(C)S[C@@H]2[C@H](NC(=O)[C@H](N)c3ccc(O)cc3)C(=O)N2[C@H]1C(=O)O [Amoxicillin] + CN[C@@H]1[C@H](O)[C@H](NC)[C@H]2O[C@@]3(O)C(=O)C[C@@H](C)O[C@H]3O[C@@H]2[C@H]1O [Spectinomycin]
- fitness (S. aureus DSM 20231 [1]; [7]): 0.649
- fitness (S. aureus DSM 20231 [1]; [8]): 0.63
- fitness (S. aureus DSM 20231 [1]; [9]): 0.572
- fitness (S. aureus DSM 20231 [1]; [10]): 0.533
- fitness (S. aureus DSM 20231 [1]; [11]): 0.0322
- fitness (S. aureus DSM 20231 [1]; [12]): 0.414
- fitness (S. aureus DSM 20231 [1]; [13]): 0.302
- fitness (S. aureus DSM 20231 [1]; [14]): 0.0172
- fitness (S. aureus DSM 20231 [1]; [15]): 0.148
- fitness (S. aureus DSM 20231 [1]; [16]): 0.0187
- fitness (S. aureus DSM 20231 [1]; [17]): 0.0033
- fitness (S. aureus DSM 20231 [1]; first compound 0.5 µg/mL, partner 4 µg/mL, one replicate): 0.0014
- fitness (S. aureus DSM 20231 [1]; first compound 0.5 µg/mL, partner 8 µg/mL, one replicate): 0.0081
- fitness (S. aureus DSM 20231 [1]; first compound 0.5 µg/mL, partner 16 µg/mL, one replicate): 0
- fitness (S. aureus Newman [2]; [7]): 0.874
- fitness (S. aureus Newman [2]; [8]): 0.876
- fitness (S. aureus Newman [2]; [9]): 0.823
- fitness (S. aureus Newman [2]; [10]): 0.373
- fitness (S. aureus Newman [2]; [11]): 0.0208
- fitness (S. aureus Newman [2]; [12]): 0.875
- fitness (S. aureus Newman [2]; first compound 0.125 µg/mL, partner 8 µg/mL): 0.861
- fitness (S. aureus Newman [2]; first compound 0.125 µg/mL, partner 16 µg/mL): 0.816
- fitness (S. aureus Newman [2]; [13]): 0.308
- fitness (S. aureus Newman [2]; [14]): 0.03
- fitness (S. aureus Newman [2]; first compound 0.25 µg/mL, partner 4 µg/mL): 0.863
- fitness (S. aureus Newman [2]; [15]): 0.826
- fitness (S. aureus Newman [2]; [16]): 0.141
- fitness (S. aureus Newman [2]; [17]): 0.0162
- fitness (S. pneumoniae D39V [3]; first compound 0.0008 µg/mL, partner 4 µg/mL): 0.962
- fitness (S. pneumoniae D39V [3]; first compound 0.0008 µg/mL, partner 8 µg/mL): 0.911
- fitness (S. pneumoniae D39V [3]; first compound 0.0008 µg/mL, partner 16 µg/mL, one replicate): 0.951
- fitness (S. pneumoniae D39V [3]; first compound 0.0015 µg/mL, partner 4 µg/mL): 0.975
- fitness (S. pneumoniae D39V [3]; first compound 0.0015 µg/mL, partner 8 µg/mL): 0.94
- fitness (S. pneumoniae D39V [3]; first compound 0.0015 µg/mL, partner 16 µg/mL): 0.887
- fitness (S. pneumoniae D39V [3]; first compound 0.003 µg/mL, partner 4 µg/mL): 0.882
- fitness (S. pneumoniae D39V [3]; first compound 0.003 µg/mL, partner 8 µg/mL): 0.89
- fitness (S. pneumoniae D39V [3]; first compound 0.003 µg/mL, partner 16 µg/mL): 0.826
- fitness (S. pneumoniae D39V [3]; first compound 0.006 µg/mL, partner 4 µg/mL, one replicate): 0.274
- fitness (S. pneumoniae D39V [3]; first compound 0.006 µg/mL, partner 8 µg/mL, one replicate): 0.329
- fitness (S. pneumoniae D39V [3]; first compound 0.006 µg/mL, partner 16 µg/mL, one replicate): 0.416
- Bliss interaction score (B. subtilis 168): -0.0495
- Bliss interaction score (S. aureus DSM 20231 [4]): 0.0589
- Bliss interaction score (S. aureus Newman [5]): 0.0408
- Bliss interaction score (S. pneumoniae D39V [6]): 0.0712

Compound: CC1(C)S[C@@H]2[C@H](NC(=O)[C@H](N)c3ccc(O)cc3)C(=O)N2[C@H]1C(=O)O [Amoxicillin] + CN[C@H](CC(C)C)C(=O)N[C@H]1C(=O)N[C@@H](CC(N)=O)C(=O)N[C@H]2C(=O)N[C@H]3C(=O)N[C@H](C(=O)N[C@H](C(=O)O)c4cc(O)cc(O)c4-c4cc3ccc4O)[C@H](O)c3ccc(c(Cl)c3)Oc3cc2cc(c3O[C@@H]2O[C@H](CO)[C@@H](O)[C@H](O)[C@H]2O[C@H]2C[C@](C)(N)[C@H](O)[C@H](C)O2)Oc2ccc(cc2Cl)[C@H]1O [Vancomycin]
- fitness (S. aureus DSM 20231 [1]; [18]): 0.605
- fitness (S. aureus DSM 20231 [1]; [19]): 0.667
- fitness (S. aureus DSM 20231 [1]; [20]): 0.397
- fitness (S. aureus DSM 20231 [1]; [21]): 0.452
- fitness (S. aureus DSM 20231 [1]; [22]): 0.125
- fitness (S. aureus DSM 20231 [1]; [23]): 0.15
- fitness (S. aureus DSM 20231 [1]; [24]): 0.176
- fitness (S. aureus DSM 20231 [1]; first compound 0.5 µg/mL, partner 0.1875 µg/mL): 0.0104
- fitness (S. aureus DSM 20231 [1]; first compound 0.5 µg/mL, partner 0.375 µg/mL): 0.0135
- fitness (S. aureus DSM 20231 [1]; first compound 0.5 µg/mL, partner 0.75 µg/mL): 0.0165
- fitness (S. aureus Newman [2]; [18]): 0.916
- fitness (S. aureus Newman [2]; [19]): 0.914
- fitness (S. aureus Newman [2]; [25]): 0.879
- fitness (S. aureus Newman [2]; [20]): 0.887
- fitness (S. aureus Newman [2]; [21]): 0.875
- fitness (S. aureus Newman [2]; [26]): 0.877
- fitness (S. aureus Newman [2]; [22]): 0.89
- fitness (S. aureus Newman [2]; [23]): 0.866
- fitness (S. aureus Newman [2]; [24]): 0.811
- fitness (S. pneumoniae D39V [3]; first compound 0.0008 µg/mL, partner 0.03125 µg/mL): 0.988
- fitness (S. pneumoniae D39V [3]; first compound 0.0008 µg/mL, partner 0.0625 µg/mL): 0.871
- fitness (S. pneumoniae D39V [3]; first compound 0.0008 µg/mL, partner 0.125 µg/mL): 0.894
- fitness (S. pneumoniae D39V [3]; first compound 0.0008 µg/mL, partner 0.25 µg/mL, one replicate): 0.928
- fitness (S. pneumoniae D39V [3]; first compound 0.0008 µg/mL, partner 0.5 µg/mL, one replicate): 0.33
- fitness (S. pneumoniae D39V [3]; first compound 0.0015 µg/mL, partner 0.03125 µg/mL): 0.977
- fitness (S. pneumoniae D39V [3]; first compound 0.0015 µg/mL, partner 0.0625 µg/mL): 0.852
- fitness (S. pneumoniae D39V [3]; first compound 0.0015 µg/mL, partner 0.125 µg/mL): 0.913
- fitness (S. pneumoniae D39V [3]; first compound 0.0015 µg/mL, partner 0.25 µg/mL): 0.869
- fitness (S. pneumoniae D39V [3]; first compound 0.0015 µg/mL, partner 0.5 µg/mL): 0.299
- fitness (S. pneumoniae D39V [3]; first compound 0.003 µg/mL, partner 0.03125 µg/mL): 0.861
- fitness (S. pneumoniae D39V [3]; first compound 0.003 µg/mL, partner 0.0625 µg/mL): 0.762
- fitness (S. pneumoniae D39V [3]; first compound 0.003 µg/mL, partner 0.125 µg/mL): 0.783
- fitness (S. pneumoniae D39V [3]; first compound 0.003 µg/mL, partner 0.25 µg/mL): 0.742
- fitness (S. pneumoniae D39V [3]; first compound 0.003 µg/mL, partner 0.5 µg/mL): 0.289
- fitness (S. pneumoniae D39V [3]; first compound 0.006 µg/mL, partner 0.125 µg/mL, one replicate): 0.234
- fitness (S. pneumoniae D39V [3]; first compound 0.006 µg/mL, partner 0.25 µg/mL, one replicate): 0.13
- fitness (S. pneumoniae D39V [3]; first compound 0.006 µg/mL, partner 0.5 µg/mL, one replicate): 0.0321
- Bliss interaction score (B. subtilis 168): -0.0442
- Bliss interaction score (S. aureus DSM 20231 [4]): 0.074
- Bliss interaction score (S. aureus Newman [5]): 0.0681
- Bliss interaction score (S. pneumoniae D39V [6]): 0.101

Compound: CC1(C)S[C@@H]2[C@H](NC(=O)[C@H](N)c3ccc(O)cc3)C(=O)N2[C@H]1C(=O)O [Amoxicillin] + O=C(N[C@H](CO)[C@H](O)c1ccc([N+](=O)[O-])cc1)C(Cl)Cl [Chloramphenicol]
- fitness (S. aureus DSM 20231 [1]; [25]): 0.446
- fitness (S. aureus DSM 20231 [1]; first compound 0.0625 µg/mL, partner 1.5 µg/mL): 0.323
- fitness (S. aureus DSM 20231 [1]; first compound 0.0625 µg/mL, partner 3 µg/mL): 0.0721
- fitness (S. aureus DSM 20231 [1]; first compound 0.125 µg/mL, partner 1.5 µg/mL): 0.162
- fitness (S. aureus DSM 20231 [1]; [27]): 0.0829
- fitness (S. aureus DSM 20231 [1]; [24]): 0.041
- fitness (S. aureus DSM 20231 [1]; first compound 0.25 µg/mL, partner 1.5 µg/mL): 0.0389
- fitness (S. aureus DSM 20231 [1]; first compound 0.25 µg/mL, partner 3 µg/mL): 0.0294
- fitness (S. aureus DSM 20231 [1]; first compound 0.5 µg/mL, partner 0.75 µg/mL, one replicate): 0.0382
- fitness (S. aureus DSM 20231 [1]; first compound 0.5 µg/mL, partner 1.5 µg/mL, one replicate): 0.005
- fitness (S. aureus DSM 20231 [1]; first compound 0.5 µg/mL, partner 3 µg/mL, one replicate): 0.0307
- fitness (S. aureus Newman [2]; [25]): 0.724
- fitness (S. aureus Newman [2]; [26]): 0.718
- fitness (S. aureus Newman [2]; [27]): 0.139
- Bliss interaction score (B. subtilis 168): 0.122
- Bliss interaction score (S. aureus DSM 20231 [4]): -0.0444
- Bliss interaction score (S. aureus Newman [5]): -0.108
- Bliss interaction score (S. pneumoniae D39V [6]): 0.165
